Laboratory results published in patent US20150125397A1, “DUAL SPECIFIC BINDING PROTEINS DIRECTED AGAINST IMMUNE CELL RECEPTORS AND AUTOANTIGENS” (ABBVIE INC., priority 2013, published 2015).

Assays:
Format in all cases: cell-based, mouse
[1] = tested on: Dnase2−/− Ifnar1−/− DKO B cells; assay: 3H-thymidine incorporation of B220-purified B cells, DKO; settings: 24 hours, FIG. 10C
From the text: (§1) Mice: RF and Tlr-9^−/− mice have been described previously (Uccellini et al. (2008) J. Immunol. 181:5875-5884), The DNase II-deficient mice on a C57BL/6 background were kindly provided by Dr. S, Nagata and obtained from the RIKEN Institute. […] and Unc93B1-deficient mice were obtained from Jackson Lab. DnaseII^−/− Ifnar1^−/− (Het), DnaseII^−/− Ifnar1−/− (DKO), and DnaseII^−/− Unc93b1^−/− (TKO), were bred at UMMS. All mice were maintained at the Department of Animal Medicine of the University of Massachusetts Medical School in accordance with the regulations of the American Association for the Accreditation of Laboratory Animal Care.
(§2) Proliferation of B220+ B cells: B cells were purified by magnetic bead separation using CD45R/B220-conjugated magnetic particles (BD Biosciences, San Jose, Calif., USA) and stimulated as described previously (Nundel et al. (2013) J. Leukoc. Biol. 94:865-875) with 15 μg/ml goat anti-mouse IgM F(ab′)2 (Jackson ImmunoResearch), ODN1826 (CpG; Idera Pharmaceuticals), anti-DNA-mAb (Leadbetter et al. (2002) Nature 416:603-607), or DVD-Ig proteins (1 μg/ml). B cell proliferation was assessed by ^3H-thymidine (Amersham Biosciences, Piscataway, N.J., USA) incorporation at 24 hours post-stimulation. For long-term proliferation assays, B220-purified B cells were labeled with a final concentration of 2.5 μM CFSE (Life Technologies) in PBS for 2 minutes. […]

[2] = tested on: Primary murine B cells; assay: CFSE dilution / Sytox Blue FACS of primary murine B cells; settings: 72 hours; absence of BLyS; FIG. 3
Procedure: Primary murine B cells were purified by positive selection as described above. For cultures >48 hours old, proliferation was quantified by carboxyfluorescein diacetate, succinimidyl ester (CFSE) dilution and cell death by TO-PRO-3 binding. To label the cells with CFSE, the cells were first washed 2 times with PBS. Next, the stock of CFSE was diluted to 10 μM in PBS and the cells were brought to 1×10^7 cells/ml. The cells were mixed at a 1:1 ratio with 10 μM CFSE and mixed gently for 2 minutes. The CFSE labeling reaction was stopped by adding heat inactivated fetal calf serum equal in volume to the starting volume for the cell suspension. […] Proliferation was measured by fluorophore dilution at 60-72 hours by flow cytometry. […]
Primary murine B cells were labeled and prepared as in Example 2.7 and stimulated with either media alone, […] of TLR9 ligand CpG oligodeoxynucleotide (ODN) 1826, […] of the mouse anti-chromatin autoantibody PL2-3 or […] DVD3759 in the presence or absence of […] of the B cell survival factor BLyS. After 72 hours, cells were stained with 1 μM of the cell permeable DNA stain Sytox Blue and analyzed by fluorescence activated cell sorting (FACS). Cell division was determined by dilution of CFSE and dead cells were identified by staining with Sytox Blue.

[3] = tested on: Dnase2−/− Ifnar1−/− Unc93b1−/− TKO B cells; assay: 3H-thymidine incorporation of B220-purified B cells, TKO; settings: 24 hours, FIG. 10C
From the text: as §1, §2

## ODN 1826 [reference compound]
[1]
  response of DKO B cells: normal response
[2]
  cell division (CFSE dilution) and cell death (Sytox Blue): post-proliferative cell death was not observed
[3]
  response of TKO B cells: failed to respond
